Experimental data published in patent US9540392B2, “Thienopyrimidines” (BAYER PHARMA AKTIENGESELLSCHAFT, priority 2012, dated 2017).

Each compound was assayed against T1, human full-length MKNK1 (Homo sapiens, UniProt Q9BUB5, T385D) (assay: MKNK1 kinase high ATP assay (TR-FRET)). Settings: 2 mM ATP, after preincubation with MKNK1; read-out: MKNK1 IC50 (MKNK1 high ATP).
T1 construct: GST (N); purchased Carna Biosciences 02-145; host or cells: insect cells (baculovirus expression system)
Type: biochemical
Protocol: MKNK1-inhibitory activity at high ATP of compounds of the present invention after their preincubation with MKNK1 was quantified employing the TR-FRET-based MKNK1 high ATP assay as described in the following paragraphs.
As substrate for the kinase reaction the biotinylated peptide biotin-Ahx-[…] (C-terminus in amide form) was used, which can be purchased e.g. from the company Biosyntan (Berlin-Buch, Germany).
For the assay 50 nL of a 100 fold concentrated solution of the test compound in DMSO was pipetted into a black low volume 384 well microtiter plate (Greiner Bio-One, Frickenhausen, Germany), 2 μL of a solution of MKNK1 in aqueous assay buffer [50 mM HEPES pH 7.5, 5 mM MgCl2, 1.0 mM dithiothreitol, 0.005% (v/v) Nonidet-P40 (Sigma)] was added and the mixture was incubated for 15 min at 22° C. to allow pre-binding of the test compounds to the enzyme before the start of the kinase reaction. Then the kinase reaction was started by the addition of 3 μL of a solution of adenosine-tri-phosphate (ATP, 3.3 mM=>final conc. in the 5 μL assay volume is 2 mM) and substrate (0.1 μM=>final conc. in the 5 μL assay volume is 0.06 μM) in assay buffer and the resulting mixture was incubated for a reaction time of 30 min at 22° C. The concentration of MKNK1 was adjusted depending of the activity of the enzyme lot and was chosen appropriate to have the assay in the linear range, typical concentrations were in the range of 0.003 μg/mL. The reaction was stopped by the addition of 5 μL of a solution of TR-FRET detection reagents (5 nM streptavidine-XL665 [Cisbio Bioassays, Codolet, France] and 1 nM anti-ribosomal protein S6 (pSer236)-antibody from Invitrogen [#44921G] and 1 nM LANCE EU-W1024 Labeled ProteinG [Perkin-Elmer, product no. AD0071]) in an aqueous EDTA-solution (100 mM EDTA, 0.1% (w/v) bovine serum albumin in 50 mM HEPES pH 7.5).
The resulting mixture was incubated for 1 h at 22° C. to allow the formation of complex between the phosphorylated biotinylated peptide and the detection reagents. Subsequently the amount of phosphorylated substrate was evaluated by measurement of the resonance energy transfer from the Eu-chelate to the streptavidine-XL. Therefore, the fluorescence emissions at 620 nm and 665 nm after excitation at 350 nm were measured in a TR-FRET reader, e.g. a Rubystar (BMG Labtechnologies, Offenburg, Germany) or a Viewlux (Perkin-Elmer). The ratio of the emissions at 665 nm and at 622 nm was taken as the measure for the amount of phosphorylated substrate.

T1 sequence (Q9BUB5 1-424 isoform Q9BUB5-2 T344D): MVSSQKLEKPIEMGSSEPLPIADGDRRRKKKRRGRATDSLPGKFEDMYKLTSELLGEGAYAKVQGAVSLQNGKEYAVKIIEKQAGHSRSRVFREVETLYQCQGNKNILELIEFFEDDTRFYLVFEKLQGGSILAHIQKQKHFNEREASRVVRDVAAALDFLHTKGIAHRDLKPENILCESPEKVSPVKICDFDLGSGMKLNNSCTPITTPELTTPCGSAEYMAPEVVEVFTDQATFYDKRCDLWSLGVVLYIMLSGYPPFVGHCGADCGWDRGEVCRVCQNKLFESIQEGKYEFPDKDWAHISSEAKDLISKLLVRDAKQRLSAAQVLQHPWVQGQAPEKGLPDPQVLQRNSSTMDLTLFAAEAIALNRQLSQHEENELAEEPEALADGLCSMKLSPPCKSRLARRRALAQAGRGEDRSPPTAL

| SMILES | IC50 [nM] |
| --- | --- |
| CC(C)Oc1cc2[nH]ncc2cc1Nc1ncnc2sc3c(c12)CCC(C(=O)N1CC2(CCO2)C1)C3 (racemic) [Example 259, (RS)-{4-[(6-Isopropoxy-1H-indazol-5-yl)amino]-5,6,7,8-tetrahydro[1]benzothieno[2,3-d]pyrimidin-7-yl}(1-oxa-6-azaspiro[3.3]hept-6-yl)methanone] | 1.9 |
| CCN(C)C(=O)C1CCc2c(sc3ncnc(Nc4cc5cn[nH]c5cc4OC(C)C)c23)C1 (racemic) [Example 217, (RS)—N-Ethyl-N-methyl-4-{[6-(propan-2-yloxy)-1H-indazol-5-yl]amino}-5,6,7,8-tetrahydro[1]benzothieno[2,3-d]pyrimidine-7-carboxamide] | 1 |
| CCN(Cc1ccncc1)C(=O)C1CCc2c(sc3ncnc(Nc4ccc5[nH]ncc5c4)c23)C1 (racemic) [Example 109, (RS)-N-ethyl-4-(1H-indazol-5-ylamino)-N-(pyridin-4-ylmethyl)-5,6,7,8-tetrahydro[1]benzothieno[2,3-d]pyrimidine-7-carboxamide] | 8 |
| CCOc1cc2[nH]ncc2cc1Nc1ncnc2sc3c(c12)CCC(C(=O)N1CC2(COC2)C1)C3 (racemic) [Example 239, (RS)-{4-[(6-Ethoxy-1H-indazol-5-yl)amino]-5,6,7,8-tetrahydro[1]benzothieno[2,3-d]pyrimidin-7-yl}(2-oxa-6-azaspiro[3.3]hept-6-yl)methanone] | 0.4 |
| O=C(NCc1ccc(C(F)(F)F)cc1)C1CCc2c(sc3ncnc(Nc4ccc5[nH]ncc5c4)c23)C1 (stereo not shown) [Example 28, 4-(1H-Indazol-5-ylamino)-N-[4-(trifluoromethyl)benzyl]-5,6,7,8-tetrahydro[1] benzothieno [2,3-d]pyrimidine-7-carboxamide] | 4 |
| CC(=O)N1CCN(C(=O)C2CCc3c(sc4ncnc(Nc5ccc6[nH]ncc6c5)c34)C2)CC1 (racemic) [Example 97, (RS)-1-(4-{[4-(1H-indazol-5-ylamino)-5,6,7,8-tetrahydro[1]benzothieno[2,3-d]pyrimidin-7-yl]carbonyl}piperazin-1-yl)ethanone] | 20.3 |
| CN(CCN1CCCC1)C(=O)C1CCc2c(sc3ncnc(Nc4ccc5[nH]ncc5c4)c23)C1 (racemic) [Example 167, (RS)-4-(1H-indazol-5-ylamino)-N-methyl-N-[2-(pyrrolidin-1-yl)ethyl]-5,6,7,8-tetrahydro[1]benzothieno[2,3-d]pyrimidine-7-carboxamide] | 14.9 |
| O=C(C1CCc2c(sc3ncnc(Nc4ccc5[nH]ncc5c4)c23)C1)N1CCC(CO)CC1 (racemic) [Example 132, (RS)-[4-(hydroxymethyl)piperidin-1-yl][4-(1H-indazol-5-ylamino)-5,6,7,8-tetrahydro[1]benzothieno[2,3-d]pyrimidin-7-yl]methanone] | 10.3 |
| CC(C)Oc1cc2[nH]ncc2cc1Nc1ncnc2sc3c(c12)CCC(C(=O)N1CCC2(CC2)C1)C3 (racemic) [Example 261, (RS)-5-Azaspiro[2.4]hept-5-yl{4-[(6-isopropoxy-1H-indazol-5-yl)amino]-5,6,7,8-tetrahydro[1]benzothieno[2,3-d]pyrimidin-7-yl}methanone] | 2.3 |
| O=C(C1CCc2c(sc3ncnc(Nc4ccc5[nH]ncc5c4)c23)C1)N1CCCC1CO (racemic) [Example 186, (RS)-[2-(hydroxymethyl)pyrrolidin-1-yl][4-(1H-indazol-5-ylamino)-5,6,7,8-tetrahydro[1]benzothieno[2,3-d]pyrimidin-7-yl]methanone] | 40.6 |
| O=C(C1CCc2c(sc3ncnc(Nc4ccc5[nH]ncc5c4)c23)C1)N1CCC(O)CC1 (racemic) [Example 85, (RS)-(4-hydroxypiperidin-1-yl)[4-(1H-indazol-5-ylamino)-5,6,7,8-tetrahydro[1]benzothieno[2,3-d]pyrimidin-7-yl]methanone] | 11.7 |
| CN(Cc1ccnn1C)C(=O)C1CCc2c(sc3ncnc(Nc4ccc5[nH]ncc5c4)c23)C1 (racemic) [Example 138, (RS)-4-(1H-indazol-5-ylamino)-N-methyl-N-[(1-methyl-1H-pyrazol-5-yl)methyl]-5,6,7,8-tetrahydro[1]benzothieno[2,3-d]pyrimidine-7-carboxamide] | 12.6 |
| CC(C)CNC(=O)C1CCc2c(sc3ncnc(Nc4ccc5[nH]ncc5c4)c23)C1 (stereo not shown) [Example 39, 4-(1H-Indazol-5-ylamino)-N-(2-methylpropyl)-5,6,7,8-tetrahydro[1] benzothieno [2,3-d]pyrimidine-7-carboxamide] | 6 |
| O=C(NCCN1CCOCC1)C1CCc2c(sc3ncnc(Nc4ccc5[nH]ncc5c4)c23)C1 (stereo not shown) [Example 42, 4-(1H-Indazol-5-ylamino)-N-[2-(morpholin-4-yl)ethyl]-5,6,7,8-tetrahydro[1] benzothieno [2,3-d]pyrimidine-7-carboxamide] | 9 |
| CCOC(=O)C1CCc2c(sc3ncnc(Nc4ccc5[nH]nc(C)c5c4)c23)C1 (racemic) [Example 61, (RS)-Ethyl 4-[(3-methyl-1H-indazol-5-yl)amino]-5,6,7,8-tetrahydro[1]benzothieno[2,3-d]pyrimidine-7-carboxylate] | 1020 |
| CCN(C(=O)C1CCc2c(sc3ncnc(Nc4cc5cn[nH]c5cc4OC)c23)C1)C(C)C (stereo not shown) [Example 67, N-Ethyl-4-[(6-Methoxy-1H-indazol-5-yl)amino]-N-(propan-2-yl)-5,6,7,8-tetrahydro[1]benzothieno[2,3-d]pyrimidine-7-carboxamide] | 0.7 |
| CC(C)Oc1cc2[nH]ncc2cc1Nc1ncnc2sc3c(c12)CCC(C(=O)N(C)CCO)C3 (racemic) [Example 230, (RS)—N-(2-Hydroxyethyl)-4-[(6-isopropoxy-1H-indazol-5-yl)amino]-N-methyl-5,6,7,8-tetrahydro[1]benzothieno[2,3-d]pyrimidine-7-carboxamide] | 0.2 |

Continued by falling IC50, values first:

| IC50 [nM] | SMILES |
| --- | --- |
| 1420 | Cc1n[nH]c2ccc(Nc3ncnc4sc5c(c34)CCC(C(=O)O)C5)cc12 (racemic) [Example 62, (RS)-4-[(3-Methyl-1H-indazol-5-yl)amino]-5,6,7,8-tetrahydro[1]benzothieno[2,3-d]pyrimidine-7-carboxylic acid] |
| 22.4 | O=C(C1CCc2c(sc3ncnc(Nc4ccc5[nH]ncc5c4)c23)C1)N1CCN(Cc2ccncc2)CC1 (racemic) [Example 142, (RS)-[4-(1H-indazol-5-ylamino)-5,6,7,8-tetrahydro[1]benzothieno[2,3-d]pyrimidin-7-yl][4-(pyridin-4-ylmethyl)piperazin-1-yl]methanone] |
| 16.8 | CN(CCCCO)C(=O)C1CCc2c(sc3ncnc(Nc4ccc5[nH]ncc5c4)c23)C1 (racemic) [Example 193, (RS)-N-(4-hydroxybutyl)-4-(1H-indazol-5-ylamino)-N-methyl-5,6,7,8-tetrahydro[1]benzothieno[2,3-d]pyrimidine-7-carboxamide] |
| 10 | CC(=O)N(C)C1CCN(C(=O)C2CCc3c(sc4ncnc(Nc5ccc6[nH]ncc6c5)c34)C2)C1 (racemic) [Example 198, (RS)-N-(1-{[4-(1H-indazol-5-ylamino)-5,6,7,8-tetrahydro[1]benzothieno[2,3-d]pyrimidin-7-yl]carbonyl}pyrrolidin-3-yl)-N-methylacetamide] |
| 8 | NC(=O)C1CCc2c(sc3ncnc(Nc4ccc5[nH]ncc5c4)c23)C1 (stereo not shown) [Example 3, 4-(1H-Indazol-5-ylamino)-5,6,7,8-tetrahydro[1]benzothieno[2,3-d]pyrimidine-7-carboxamide] |
| 5.1 | O=C(NCc1cccnc1)C1CCc2c(sc3ncnc(Nc4ccc5[nH]ncc5c4)c23)C1 (racemic) [Example 76, (RS)-4-(1H-Indazol-5-ylamino)-N-(pyridin-3-ylmethyl)-5,6,7,8-tetrahydro[1]benzothieno[2,3-d]pyrimidine-7-carboxamide] |
| 0.5 | COc1cc2[nH]ncc2cc1Nc1ncnc2sc3c(c12)CCC(C(=O)N1CCOCC1)C3 (racemic) [Example 175, (RS)-{4-[(6-Methoxy-1H-indazol-5-yl)amino]-5,6,7,8-tetrahydro[1]benzothieno[2,3-d]pyrimidin-7-yl}(morpholin-4-yl)methanone] |
| 0.4 | COc1cc2[nH]ncc2cc1Nc1ncnc2sc3c(c12)CCC(C(=O)N(C)CCO)C3 (racemic) [Example 172, (RS)—N-(2-Hydroxyethyl)-4-[(6-methoxy-1H-indazol-5-yl)amino]-N-methyl-5,6,7,8-tetrahydro[1]benzothieno[2,3-d]pyrimidine-7-carboxamide] |
